In ChEMBL document CHEMBL5150018, “Subtilisin-like Serine Protease 1 (SUB1) as an Emerging Antimalarial Drug Target: Current Achievements in Inhibitor Discovery” (J Med Chem, 2022) one finds IC50, Ki and EC50 data, which are given here for 26 compounds.

*1 amine or outer side, *2 acyl side, *3 side chain or, on linkers, in order; H or OH if unused. Where a SMILES comes first, the peptide text is derived from it. [ ]: non-standard residue; d: D form. The star is where a group is joined. Abu(ψCOCO) = CC[C@H](N[*:1])C(=O)C(=O)[*:2]; X1 = NC(=O)CC[C@H](N[*:1])C(=O)C(=O)[*:2]; X2 = C[C@H](N[*:1])C(=O)C(F)(F)C(=O)[*:2]; Pentanoyl(4-Me) = CC(C)CCC(=O)*; Bn = c1ccc(C*)cc1; CF3 = FC(F)(F)*; NHcPr = C1CC1N* Where only a bound is given, the exact number is not on record here.

For experiment [1], the target named is T1, Subtilisin-like protease 1 (Plasmodium falciparum, UniProt O61142).
T1 sequence (O61142 whole entry): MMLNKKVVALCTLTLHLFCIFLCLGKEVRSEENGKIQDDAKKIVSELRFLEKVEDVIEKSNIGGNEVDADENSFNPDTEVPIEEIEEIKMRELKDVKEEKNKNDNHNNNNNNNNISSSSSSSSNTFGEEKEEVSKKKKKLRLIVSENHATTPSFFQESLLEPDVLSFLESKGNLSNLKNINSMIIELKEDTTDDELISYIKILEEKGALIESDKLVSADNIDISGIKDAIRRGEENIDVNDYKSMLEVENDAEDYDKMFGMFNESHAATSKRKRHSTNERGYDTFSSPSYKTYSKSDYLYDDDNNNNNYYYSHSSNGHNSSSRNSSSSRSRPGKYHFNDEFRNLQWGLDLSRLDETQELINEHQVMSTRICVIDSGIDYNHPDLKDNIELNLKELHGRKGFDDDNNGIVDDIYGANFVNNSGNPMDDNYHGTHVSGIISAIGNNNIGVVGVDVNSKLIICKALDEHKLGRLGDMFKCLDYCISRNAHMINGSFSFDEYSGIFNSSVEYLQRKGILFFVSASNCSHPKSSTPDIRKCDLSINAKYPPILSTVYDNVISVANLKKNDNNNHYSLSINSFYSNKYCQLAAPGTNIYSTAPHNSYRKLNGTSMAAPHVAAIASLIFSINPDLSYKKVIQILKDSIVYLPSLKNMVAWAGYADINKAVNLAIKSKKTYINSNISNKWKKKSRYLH
Description: Inhibition of Plasmodium falciparum SUB1 in intact schizonts.

The test system of experiment [2] is Plasmodium falciparum. Description: Antimalarial activity against Plasmodium falciparum 3D7 assessed as inhibition of parasitic growth measured after 48 hrs. Format: functional, organism-based. As to conditions: 3D7, 48 h.
Experiment [3] relates to Plasmodium falciparum. Description: Antimalarial activity against Plasmodium falciparum Dd2 assessed as inhibition of parasitic growth measured after 48 hrs. Format: functional, organism-based. As to conditions: Dd2, 48 h.
The target of experiment [4] is T1, Subtilisin-like protease 1. The experiment is described as follows: Binding affinity to Plasmodium falciparum SUB1 using KLVSADNIDIS peptide as substrate by FRET assay.
Experiment [5] has as its system Plasmodium falciparum. Description: Antimalarial activity against synchronized Plasmodium falciparum 3D7 infected in human RBC assessed as inhibition of parasite growth at schizont stage incubated for 4 to 8 hrs by Giemsa staining based microscopic analysis. Format: functional. As to conditions: 3D7, Erythrocyte, time 4-8 hrs, read-out: ED50 (the source's name).
The test system of experiment [6] is Plasmodium falciparum. The experiment is described as follows: Antimalarial activity against synchronized Plasmodium falciparum 3D7 infected in human RBC assessed as inhibition of cell invasion incubated for 4 to 8 hrs by Giemsa staining based microscopic analysis. Type of experiment: functional. As to conditions: 3D7, Erythrocyte, time 4-8 hrs, read-out: ED50 (the source's name).

For experiment [7], the target named is T1, Subtilisin-like protease 1. The experiment is described as follows: Inhibition of recombinant Plasmodium falciparum SUB1 using SERA4st1F-6R1 as substrate by fluorescence spectrophotometer.
Experiment [8] concerns Plasmodium falciparum. Description: Antimalarial activity against Plasmodium falciparum 3D7 assessed as inhibition of parasite growth incubated for 96 hrs by SYBR Green dye based assay. Type of experiment: functional, organism-based. As to conditions: 3D7, 96 h.
Experiment [9] deals with T1, Subtilisin-like protease 1. The experiment is described as follows: Inhibition of Plasmodium falciparum SUB1.
A short description of experiment [10]: Inhibition of recombinant Plasmodium vivax SUB1 using SERA4st1F-6R1 as substrate by fluorescence spectrophotometer.
Experiment [11] can be described thus: Inhibition of recombinant Plasmodium knowlesi SUB1 using SERA4st1F-6R1 as substrate by fluorescence spectrophotometer.
The nature of experiment [12]: Inhibition of recombinant C-terminal 6-His tagged Plasmodium vivax SUB1 expressed in baculovirus expression system.
Experiment [13] addresses T1, Subtilisin-like protease 1. Description: Inhibition of recombinant C-terminal 6-His tagged Plasmodium falciparum SUB1 expressed in baculovirus expression system.
Experiment [14] is described as follows: Inhibition of Plasmodium vivax SUB1.
A short description of experiment [15]: Inhibition of Bacillus licheniformis Subtilisin A.

Take `O=C(CCCCCNC(=O)CCCC[C@H]1SC[C@H]2NC(=O)N[C@H]21)NCCCCCC(=O)Nc1ccc2c(Cl)c(OCCc3ccccc3)oc(=O)c2c1`: in [1], it took 18 µM to reach half-maximal inhibition (IC50).

On to `CSc1ccc(CCNC(=O)Cn2ncc3c([nH]c4ccccc43)c2=O)cc1`, for which the IC50 in the experiment on Plasmodium falciparum [2] and in the experiment on Plasmodium falciparum [3] was above 50 µM each time. Affinity in [4] was put at a Ki of 14.7 µM.

Turning to `O=C(Nc1ccc(-c2nc3cc(NC(=O)c4ccccc4)ccc3[nH]2)cc1)c1ccccc1`, the results for the IC50 in the experiment on Plasmodium falciparum [2] and in the experiment on Plasmodium falciparum [3] were 1.1 µM and 3.3 µM, respectively. For the same compound, the Ki (commonly a measure of affinity in units of concentration, obtained from inhibition or displacement) in [4] was 7.6 µM.

With `Oc1ccc(C2Oc3c(c(O)cc4c3C3c5c(O)cc(O)c(O)c5OC(c5ccc(O)c(O)c5)(O4)C3O)CC2O)cc1O` (stereo not given), the EC50 in the experiment with Plasmodium falciparum [5] amounted to 108 µM; in the experiment on Plasmodium falciparum [6], 25 µM.

Take `COc1ccc(Nc2cc(C)c3cc(NC(=O)c4cc5ccccc5[nH]4)ccc3n2)cc1`: the figures for the IC50 with Plasmodium falciparum [2] and with Plasmodium falciparum [3] were 0.37 µM and 0.45 µM, respectively.

`CC[C@H](C)[C@H](NC(C)=O)C(=O)N[C@H](C(=O)N[C@@H](C)C(=O)N[C@@H](C)C(=O)C(F)(F)C(=O)O)[C@@H](C)O`: the half-inhibitory concentration (IC50) (usually the concentration that gives 50% inhibition) in [7] is above 50 µM.

For `Nc1cc2nc(Nc3ccc(Br)cc3)c(Nc3ccc(Br)cc3)nc2cc1Cl`, in experiment [7], the IC50 is 17 µM.

Regarding `CC(=O)N[C@H](C(=O)N[C@H](C(=O)NCC(=O)N[C@@H](C)B(O)O)[C@@H](C)O)C1CCCC1`, in the experiment on Plasmodium falciparum [8], the EC50 is 2.3 µM. Besides, the IC50 in experiment [9] turned out to be 9.3 µM.

Regarding `CC(=O)N[C@H](C(=O)N[C@H](C(=O)NCC(=O)N[C@@H](C)B(O)O)C(C)C)C1CCCC1`, the EC50 in the experiment with Plasmodium falciparum [8] came to 0.26 µM. Also, in experiment [9], the IC50 was found to be 5.7 µM.

Turning to `COc1cc(Cl)c(C)cc1NC(=O)Cn1c(=O)n(CC(=O)NC2CCCC2)c(=O)c2ccccc21`, the IC50 with Plasmodium falciparum [2] and in the experiment with Plasmodium falciparum [3] was above 50 µM in each case. The Ki in experiment [4] stood at 30 µM.

In experiment [9], `CC(=O)N[C@H](C(=O)N[C@H](C(=O)NCC(=O)NC(C)C(=O)C(=O)NCCC(=O)O)[C@@H](C)O)C1CCCC1` (stereo not given in full) registered an IC50 of 0.37 µM.

As for `Clc1cc(Nc2nc3ccccc3nc2Nc2ccc(Br)c(Cl)c2)ccc1Br`, in [7], the IC50 stood at 14 µM.

On to `CC[C@H](C)[C@H](NC(C)=O)C(=O)N[C@H](C(=O)NCC(=O)N[C@@H](C)B(O)O)[C@@H](C)O`, for which, in the experiment on Plasmodium falciparum [8], the EC50 came out at 1.8 µM. In experiment [9], this compound gave an IC50 of 0.069 µM.

Take `CC(=O)N[C@H](C(=O)N[C@@H](C)C(=O)NCC(=O)N[C@@H](C)B(O)O)C1CCCC1`: the EC50 in the experiment on Plasmodium falciparum [8] stood at 0.34 µM. Moreover, the midpoint of inhibition in experiment [9], the IC50, lay at 7.8 µM.

Consider `CCc1cccc(NC(=O)c2ccc3c(=O)n4nc(Nc5cc(C)ccc5C)sc4nc3c2)c1`, for which the IC50 was 17.1 µM in the experiment on Plasmodium falciparum [2] and 22.3 µM in the experiment on Plasmodium falciparum [3]. The same compound returned a Ki in experiment [4] of 30.1 µM.

With `CC(=O)N[C@H](C(=O)N[C@H](C(=O)NCC(=O)N[C@H]1CCOB1O)[C@@H](C)O)C1CCCC1`, the EC50 with Plasmodium falciparum [8] is 15 µM. The compound also had an IC50 in [9] of 4.6 µM.

As to `CC(C)[C@H](NC(=O)Cc1ccccc1)C(=O)NCC(=O)N[C@@H](C)C(=O)C(F)(F)C(=O)NCC(=O)O`, the IC50 in experiment [7] was determined as 1 µM.

As for `CS(=O)(=O)Nc1cc2nc(Nc3ccc(Br)cc3)c(Nc3ccc(Br)cc3)nc2cc1Cl`, the IC50 in [7] came to 11 µM.

On to `Brc1ccc(Nc2nc3ccccc3nc2Nc2ccc(Br)cc2)cc1`, for which the IC50 in experiment [7] came out at 10 µM.

As to `CC[C@H](C)[C@H](NC(C)=O)C(=O)N[C@H](C(=O)N[C@@H](C)C(=O)N[C@@H](C)C(=O)C(F)(F)F)[C@@H](C)OCc1ccccc1` (Ac-IT(Bn)AA-CF3), the IC50 in [7] was above 50 µM.

With `CC[C@H](C)[C@H](NC(C)=O)C(=O)N[C@H](C(=O)N[C@@H](C)C(=O)N[C@@H](C)C(=O)C(F)(F)C(=O)NCC(=O)O)[C@@H](C)O` (Ac-ITA[X2]G-OH), the IC50 amounted to 2.2 µM in experiment [10] and 0.68 µM in experiment [11].

For `CC[C@H](C)[C@H](NC(C)=O)C(=O)N[C@H](C(=O)NCC(=O)N[C@@H](C)C(=O)C(F)(F)C(=O)NCC(=O)O)C(C)C` (Ac-IVG[X2]G-OH), the IC50 in experiment [7] came out at 0.25 µM.

As for `CC[C@H](NC(=O)[C@H](C)NC(=O)[C@@H](NC(=O)[C@@H](NC(=O)[C@H](CCCCN)NC(C)=O)[C@@H](C)CC)[C@@H](C)O)C(=O)C(=O)NC1CC1` (Ac-KITA[Abu(ψCOCO)]-NHcPr), the figures for the 50% inhibitory concentration (IC50) in experiment [12] and in [13] were 12 µM and 6 µM, respectively.

On to `CC[C@H](C)[C@H](NC(=O)[C@H](CCCCN)NC(C)=O)C(=O)N[C@H](C(=O)N[C@@H](C)C(=O)N[C@@H](C)C(=O)C(F)(F)C(=O)NCC(=O)O)[C@@H](C)O` (Ac-KITA[X2]G-OH), for which the figures for the IC50 in [10] and in experiment [11] were 2.5 µM and 1.12 µM, respectively.

Turning to `CC[C@H](C)[C@H](NC(=O)[C@H](CCCCN)NC(=O)CCC(C)C)C(=O)N[C@H](C(=O)N[C@@H](C)C(=O)N[C@@H](CCC(N)=O)C(=O)C(=O)N[C@@H](CC(=O)O)C(=O)N[C@@H](CC(=O)O)C(=O)N[C@@H](CCC(N)=O)C(=O)N[C@@H](CCC(N)=O)C(N)=O)[C@@H](C)O` ({Pentanoyl(4-Me)}-KITA[X1]DDQQ-NH2), the results for the IC50 in experiment [14] and in experiment [9] were 10.5 µM and 17.8 µM, respectively.

Regarding `CC1(C)CC[C@]2(C(=O)O)CC[C@]3(C)C(=CC[C@@H]4[C@@]5(C)C[C@@H](O)[C@H](O)C(C)(C)[C@@H]5CC[C@]43C)[C@@H]2C1` [MASLINIC ACID], the IC50 in experiment [15] stood at 59.3 µM.
